These results are taken from article PMC7520419 (The AAPS Journal, 2020).

Converted amounts (≈) assume the structure as drawn. Structures can show the parent of a compound that is named as a salt. Where two headings read alike, the source gives them in different places.

As usually defined, the pKa is the pH at which an ionisable group is half protonated. Broadly, the solubility is how much of the substance goes into solution per volume.

A short description of series [1]: pKa.
The conditions of series [2]: cited from earlier work.
Series [3] is described as follows: Effective human jejunum permeability (Peff,man) used in the PBPK model. Type of series: in vitro ADME. The settings on record: human, 1 h.
A short description of series [4]: PBPK food effect modeling (Simcyp V17.1 and/or GastroPlus V9.5; Model 1 / Model 2). Also on record: species or system human. The conditions noted are these: Model 1.
Series [5] can be described thus: Solubility measurement in biorelevant media (FaSSIF-V2, FeSSIF-V2). The conditions noted are these: 37 °C, thermodynamic from solid.
Method: The solubility of the drug substances was determined in biorelevant media as well as in aqueous buffers at different pH. Fasted state simulated gastric fluid (FaSSGF) ([37]), fasted state simulated intestinal fluid (FaSSIF-V2) ([38]), and fed state simulated intestinal fluid (FeSSIF-V2) ([39]) were prepared according to the instructions provided by Biorelevant (Biorelevant.com Ltd., London, UK). […] For neutral compounds, solubility was determined at pH 2, pH 4, and pH 7.
For freely soluble compounds, the extent of solubilization was measured only up to 10 mg/mL.
Where [6] appears, read: direction, AUC and/or Cmax ratio fed to fasted, BE criteria 0.8–1.25, ref drug label.
Setting [7] is: Model 1, ref published clinical data (Table I).
The mark [8] stands for this setting: clinically observed PK change (AUC, Cmax) fed vs fasted, compiled by literature search.
[9] abbreviates: FaSSIF-V2 (fasted state simulated intestinal fluid), FaSSIF solubility.
[10] abbreviates: Model 2, ref published clinical data (Table I).

For `Cc1ccc(NC(=O)c2ccc(CN3CCN(C)CC3)cc2)cc1Nc1nccc(-c2cccnc2)n1` [Imatinib], the “pKa (b, basic)” value in series [1] is 8.07. Moreover, in series [1] (pKa (b, basic)), the pKa stood at 3.73. The Food Effect result in series [2] (setting [6]) is “None (none if no significant change in AUC and Cmax with food)”. The same molecule gave an Effective permeability in series [3] of 110 ×10⁻⁶ cm/s.
`Cc1cn([C@H]2C[C@H](N=[N+]=[N-])[C@@H](CO)O2)c(=O)[nH]c1=O` [Zidovudine] returned a pKa in series [1] (pKa (b, basic)) of 9.7. Further, in series [2] (setting [7]), the “Observed AUC(0-inf) Fasted” value was 2480 ng·h/mL, the “Observed Cmax Fasted” value was 1130 ng/mL, the “Observed AUC(0-inf) Fed” value was 2170 ng·h/mL and the “Observed Cmax Fed” value was 632 ng/mL. For the same molecule, the “Food Effect” value in series [2] (setting [8]) is reported as “Negative (negative if ratio fasted > fed)”. The “food effect (FE) direction” value in series [2] (ref drug label) is “negative FE”.
On to `CC(C)(C)c1nc(-c2cccc(NS(=O)(=O)c3c(F)cccc3F)c2F)c(-c2ccnc(N)n2)s1` [Tafinlar], for which the “Food Effect” value in series [2] (setting [8]) was “Negative (negative if ratio fasted > fed)”.
For the molecule `Cc1ccc(O)c([C@H](CCN(C(C)C)C(C)C)c2ccccc2)c1` [Tolterodine tartrate], in series [2] (setting [8]), the “Food Effect” value is “None (none if no significant change in AUC and Cmax with food)”.
Regarding `CNCCC(Oc1ccc(C(F)(F)F)cc1)c1ccccc1` (stereo not drawn) [Fluoxetine hydrochloride], in series [2] (setting [8]), the “Food Effect” value was “None (none if no significant change in AUC and Cmax with food)”.
For the molecule `N[C@@H](CC(=O)N1CCn2c(nnc2C(F)(F)F)C1)Cc1cc(F)c(F)cc1F` [Sitagliptin], the “Food Effect” value in series [2] (setting [8]) is “None (none if no significant change in AUC and Cmax with food)”.
For the molecule `Cc1c(F)cccc1NC(=O)Nc1ccc(Cl)c(S(=O)(=O)[C@H]2CCCNC2)c1O` [Danirixin], the pKa in series [1] (pKa (a, acidic)) worked out at 4.8. In series [1] (pKa (b, basic)), this molecule showed a pKa of 8.1. In series [2] (setting [7]), the “Observed AUC(0-inf) Fasted” value is 10400 ng·h/mL, the “Observed Cmax Fasted” value is 3020 ng/mL, the “Observed AUC(0-inf) Fed” value was 6760 ng·h/mL and the “Observed Cmax Fed” value is 1300 ng/mL. In series [2] (setting [7]), the “Observed AUC Ratios (Fed/Fasted)” value is listed as 0.65 and the “Observed Cmax Ratios (Fed/Fasted)” value is 0.43. For the same molecule, the “Food Effect” value in series [2] (setting [8]) is “Negative (negative if ratio fasted > fed)”. Moreover, in series [2] (setting [6]), the Food Effect entry is listed as “Negative (negative if ratio fasted > fed)”. For the same molecule, in series [4], the “AUC Ratio of Ratios (Sim'd / Obs'd)” value was 1.51 and the “Cmax Ratio of Ratios (Sim'd / Obs'd)” value was found to be 1.70. In addition, the solubility in series [5] (setting [9]) was 459 µg/mL (≈ 1040 µM).
Consider `CN(C)C(=N)N=C(N)N` [Metformin], for which the “Food Effect” value in series [2] (setting [8]) was “None (none if no significant change in AUC and Cmax with food)”.
On to `CN[C@H]1CC[C@@H](c2ccc(Cl)c(Cl)c2)c2ccccc21` [Sertraline], for which the “Food Effect” value in series [2] (setting [8]) was “None (none if no significant change in AUC and Cmax with food)”.
For `CC(C)(C(=O)O)c1ccc(C(O)CCCN2CCC(C(O)(c3ccccc3)c3ccccc3)CC2)cc1` (stereo not drawn) [Fexofenadine], the “Food Effect” value in series [2] (setting [8]) was “Negative (negative if ratio fasted > fed)”.
Regarding `NS(=O)(=O)c1cc2c(cc1Cl)NCNS2(=O)=O` [Hydrochlorothiazide], the “Food Effect” value in series [2] (setting [8]) is “None (none if no significant change in AUC and Cmax with food)”.
With `Nc1ccn([C@H]2CC[C@@H](CO)O2)c(=O)n1` [Zalcitabine], the “Food Effect” value in series [2] (setting [8]) is “None (none if no significant change in AUC and Cmax with food)”.
In the case of `CNC(=O)c1ccccc1Sc1ccc2c(/C=C/c3ccccn3)n[nH]c2c1` [Axitinib], the “Food Effect” value in series [2] (setting [8]) is “None (none if no significant change in AUC and Cmax with food)”.
As for `CCOC(=O)C1=C[C@@H](OC(CC)CC)[C@H](NC(C)=O)[C@@H](N)C1` [Oseltamavir], the “Food Effect” value in series [2] (setting [8]) was “None (none if no significant change in AUC and Cmax with food)”.
`CNC(=O)c1cc(Oc2ccc(NC(=O)Nc3ccc(Cl)c(C(F)(F)F)c3)c(F)c2)ccn1` [Regorafenib]: the “Food Effect” value in series [2] (setting [8]) is “Positive (positive if the ratio of fed > fasted)”.
For `CC(O)(CS(=O)(=O)c1ccc(F)cc1)C(=O)Nc1ccc(C#N)c(C(F)(F)F)c1` (stereo not drawn) [Bicalutamide], the “Food Effect” value in series [2] (setting [8]) was “None (none if no significant change in AUC and Cmax with food)”.
`CC(C)(C)NC(=O)[C@@H]1C[C@@H]2CCCC[C@@H]2CN1C[C@@H](O)[C@H](Cc1ccccc1)NC(=O)[C@H](CC(N)=O)NC(=O)c1ccc2ccccc2n1` [Saquinavir]: the “Food Effect” value in series [2] (setting [8]) was “Positive (positive if the ratio of fed > fasted)”.
Take `Cc1ccc(-c2cc(C(F)(F)F)nn2-c2ccc(S(N)(=O)=O)cc2)cc1` [Celecoxib]: in series [2] (setting [8]), the “Food Effect” value was “Slightly positive”.
Take `CNCCC(Oc1ccc(C(F)(F)F)cc1)c1ccccc1` (stereo not drawn) [Fluoxetine HCl]: the pKa in series [1] (pKa (b, basic)) is 9.8. Also, in series [2] (setting [7]), the “Observed AUC(0-inf) Fasted” value is 1930 ng·h/mL, the “Observed Cmax Fasted” value was 39.3 ng/mL, the “Observed AUC(0-inf) Fed” value is 1340 ng·h/mL and the “Observed Cmax Fed” value was 35.7 ng/mL. Also, in series [2] (setting [10]), the “Observed AUC(0-inf) Fasted” value was 1930 ng·h/mL, the “Observed Cmax Fasted” value is 39.3 ng/mL, the “Observed AUC(0-inf) Fed” value was 1340 ng·h/mL and the “Observed Cmax Fed” value is 35.7 ng/mL. The “food effect (FE) direction” value in series [2] (ref drug label) is listed as “no FE”.
As for `CCC[C@H](NC(=O)[C@@H]1[C@H]2CCC[C@H]2CN1C(=O)[C@@H](NC(=O)[C@@H](NC(=O)c1cnccn1)C1CCCCC1)C(C)(C)C)C(=O)C(=O)NC1CC1` [Telapravir], in series [2] (setting [8]), the “Food Effect” value is recorded as “Positive (positive if the ratio of fed > fasted)”.
Take `CC(C)OC(=O)C(C)(C)Oc1ccc(C(=O)c2ccc(Cl)cc2)cc1` [Fenofibrate]: the “Food Effect” value in series [2] (setting [8]) is recorded as “Positive (positive if the ratio of fed > fasted)”.
Regarding `CS(=O)(=O)c1ccc(C2=C(c3ccccc3)C(=O)OC2)cc1` [Rofecoxib], the “Food Effect” value in series [2] (setting [8]) is “None (none if no significant change in AUC and Cmax with food)”.
Take `C=CC1=C(C(=O)O)N2C(=O)[C@@H](NC(=O)/C(=N\O)c3csc(N)n3)[C@H]2SC1` [Cefdinir]: the “Food Effect” value in series [2] (setting [8]) is “None (none if no significant change in AUC and Cmax with food)”.
Consider `O=C1CN=C(c2ccccn2)c2cc(Br)ccc2N1` [Bromazepam], for which, in series [2] (setting [8]), the “Food Effect” value is “Negative (negative if ratio fasted > fed)”.
The molecule `CCc1cc2c(cc1N1CCC(N3CCOCC3)CC1)C(C)(C)c1[nH]c3cc(C#N)ccc3c1C2=O` [Alectinib] displayed a pKa in series [1] (pKa (b, basic)) of 7.05. The “Observed AUC(0-inf) Fasted” value in series [2] (setting [7]) and in series [2] (setting [10]) was 1790 ng·h/mL each time. Besides, the “Observed AUC(0-inf) Fed” value in series [2] (setting [7]) and in series [2] (setting [10]) was 5230 ng·h/mL throughout. Also, the “Observed Cmax Fed” value in series [2] (setting [7]) and in series [2] (setting [10]) was 257 ng/mL each time. Also, the solubility is 23 µg/mL (≈ 47.7 µM) in series [5] (setting [9]) and 77 µg/mL (≈ 160 µM) in series [5] (FeSSIF-V2 (fed state simulated intestinal fluid), FeSSIF solubility).
Turning to `C#C[C@]1(O)CC[C@H]2[C@@H]3CCc4cc(O)ccc4[C@H]3CC[C@@]21C` [Ethinyl estradiol], the “Food Effect” value in series [2] (setting [8]) is “None (none if no significant change in AUC and Cmax with food)”.
As for `O=C(O[C@H]1C[C@H]2CC[C@@H](C1)[N+]21CCCC1)C(O)(c1ccccc1)c1ccccc1` [Trospium Chloride], the “Food Effect” value in series [2] (setting [8]) is “Negative (negative if ratio fasted > fed)”.
On to `Cc1onc(-c2ccccc2)c1-c1ccc(S(N)(=O)=O)cc1` [Valdecoxib], for which the “Food Effect” value in series [2] (setting [8]) is “None (none if no significant change in AUC and Cmax with food)”.
For the molecule `CO/N=C(\C(=O)N[C@@H]1C(=O)N2C(C(=O)OCOC(=O)C(C)(C)C)=C(/C=C\c3scnc3C)CS[C@H]12)c1csc(N)n1` [Cefditoren pivoxil], the “Food Effect” value in series [2] (setting [8]) is recorded as “Positive (positive if the ratio of fed > fasted)”.
Take `O=c1[nH]cnc2c1ncn2[C@H]1CC[C@@H](CO)O1` [Didanosine]: the “Food Effect” value in series [2] (setting [8]) is listed as “Negative (negative if ratio fasted > fed)”.
`COc1cc2nccc(Oc3ccc(NC(=O)C4(C(=O)Nc5ccc(F)cc5)CC4)cc3)c2cc1OC` [Cabozantinib]: the “Food Effect” value in series [2] (setting [8]) is given as “Positive (positive if the ratio of fed > fasted)”.
Consider `CC(C)c1nc(CN(C)C(=O)N[C@H](C(=O)N[C@@H](Cc2ccccc2)C[C@H](O)[C@H](Cc2ccccc2)NC(=O)OCc2cncs2)C(C)C)cs1` [Ritonavir], for which the “Food Effect” value in series [2] (setting [8]) is “None (none if no significant change in AUC and Cmax with food)”.
Turning to `O=P(O)(O)C(Cl)(Cl)P(=O)(O)O` [Clodronate], in series [2] (setting [8]), the “Food Effect” value is given as “Negative (negative if ratio fasted > fed)”.
With `Cc1c(C(=O)Nc2ccc(N3C[C@@H](C)O[C@@H](C)C3)nc2)cccc1-c1ccc(OC(F)(F)F)cc1` [Sonidegib], the “Food Effect” value in series [2] (setting [8]) is recorded as “Positive (positive if the ratio of fed > fasted)”.
In the case of `Cc1c(C)c2c(c(C)c1O)CCC(C)(COc1ccc(CC3SC(=O)NC3=O)cc1)O2` (stereo not drawn) [Troglitazone], the “Food Effect” value in series [2] (setting [8]) was “Positive (positive if the ratio of fed > fasted)”.
On to `CC1(C)O[C@@H]2[C@@H](CO[C@@]3(COS(N)(=O)=O)OC(C)(C)O[C@@H]23)O1` [Topiramate], for which the “Food Effect” value in series [2] (setting [8]) is “None (none if no significant change in AUC and Cmax with food)”.
Regarding `CS(=O)(=O)CCNCc1ccc(-c2ccc3ncnc(Nc4ccc(OCc5cccc(F)c5)c(Cl)c4)c3c2)o1` [Lapatinib], the “Food Effect” value in series [2] (setting [8]) is reported as “Positive (positive if the ratio of fed > fasted)”.
